Data: patent US7678918B2, “Intermediates for imidazonaphthyridines” (3M Innovative Properties Company, priority 1997, dated 2010)
Counter-ions that a name gives are not always drawn.

How the values were obtained:
interferon α = test: Interferon (α) Induction in Human Cells (PBM's, 48 hours, A549 bioassay); format: cell-based; design: key: +: indicates that the compound induced interferon α at that particular concentration; −: indicates that the compound did not induce interferon α at that particular concentration; ±: indicates that the results were equivocal at that particular concentration; details: 48 hours incubation
Procedure: An in vitro human blood cell system was used to assess interferon induction by compounds of the invention. Activity is based on the measurement of interferon secreted into culture media. Interferon is measured by bioassay.
Whole blood was collected by venipuncture into EDTA vacutainer tubes. Peripheral blood mononuclear cells (PBM's) were separated from whole blood by using either LeucoPREP™ Brand Cell Separation Tubes (available from Becton Dickinson) or Ficoll-Paque® solution (available from Pharmacia LKB Biotechnology Inc, Piscataway, N.J.). The PBM's were suspended at 1×10^6/mL in RPMI 1640 media (available from GIBCO, Grand Island, N.Y.) containing 25 mM HEPES (N-2-hydroxyethylpiperazine-N′-2-ethanesulfonic acid) and L-glutamine (1% penicillin-streptomycin solution added) with 10% heat inactivated (56° C. for 30 minutes) autologous serum added. 200 μL portions of PBM suspension were added to 96 well (flat bottom) MicroTest III sterile tissue culture plates.
The compounds were solubilized in ethanol, dimethyl sulfoxide or tissue culture water then diluted with tissue culture water, 0.01N sodium hydroxide or 0.01N hydrochloric acid (The choice of solvent will depend on the chemical characteristics of the compound being tested.). Ethanol or DMSO concentration should not exceed a final concentration of 1% for addition to the culture wells. Compounds were initially tested in a concentration range of from about 0.1 μg/mL to about 5 μg/mL. Compounds which show induction at a concentration of 0.5 μg/mL were then tested in a wider concentration range.
The solution of test compound was added in a volume (less than or equal to 50 μL) to the wells containing 200 μL of diluted whole blood or of PBM's in media. Solvent and/or media was added to control wells (wells with no test compound) and as needed to adjust the final volume of each well to 250 μL. The plates were covered with plastic lids, vortexed gently and then incubated for 48 hours at 37° C. with a 5% carbon dioxide atmosphere.
Following incubation, the plates were covered with parafilm and then centrifuged at 1000 rpm for 10 to 15 minutes at 4° C. in a Damon IEC Model CRU-5000 centrifuge. Media (about 200 μL) was removed from 4 to 8 wells and pooled into 2 mL sterile freezing vials. Samples were maintained at −70° C. until analysis.
Interferon was determined by bioassay using A549 human lung carcinoma cells challenged with encephalomyocarditis. The details of the bioassay method have been described by G. L. Brennan and L. H. Kronenberg in “Automated Bioassay of Interferons in Micro-test Plates”, Biotechniques, June/July 78, 1983, incorporated herein by reference. Briefly stated the method is as follows: interferon dilutions and A549 cells are incubated at 37° C. for 12 to 24 hours. The incubated cells are infected with an inoculum of encephalomyocarditis virus. The infected cells are incubated for an additional period at 37° C. before quantifying for viral cytopathic effect. The viral cytopathic effect is quantified by staining followed by spectrophotometric absorbance measurements. Results are expressed as alpha reference units/mL based on the value obtained for NIH HU IF-L standard. The interferon was identified as essentially all interferon alpha by testing in checkerboard neutralization assays against rabbit anti-human interferon (beta) and goat anti-human interferon (alpha) using A549 cell monolayers challenged with encephalomyocarditis virus.

TNF = test: Cytokine Induction in Human Cells: tumor necrosis factor (TNF) secreted by PBMCs, ELISA; format: cell-based; details: 18 to 24 hours; also: call rule not given here
How it was run: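 Human donor PBMCs at 1.5-2×10^6 cells/mL in RPMI with 10% FBS were exposed to compound, generally at 0.1 to 100 μM (≤1% DMSO final), for 18 to 24 h at 37 °C. Secreted TNF in supernatant was measured by ELISA and reported as pg/mL.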

IFN = test: Cytokine Induction in Human Cells: interferon (IFN) secreted by PBMCs, A549/encephalomyocarditis bioassay; format: cell-based; details: 18 to 24 hours; also: call rule not given here
How it was run: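 Human PBMCs from healthy donors at 1.5-2×10^6 cells/mL in RPMI with 10% FBS, exposed to compounds (typically 0.1 to 100 μM, ≤1% DMSO) for 18 to 24 h at 37° C. Secreted IFN measured by A549/encephalomyocarditis virus cytopathic-effect bioassay, in alpha reference units/mL against NIH human leukocyte IFN standard.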

Row | Compound | melting point | Interferon (α) Induction in Human Cells (interferon α; Dose Concentration 0.01 μg/mL) | Interferon (α) Induction in Human Cells (interferon α; Dose Concentration 0.05 μg/mL) | Interferon (α) Induction in Human Cells (interferon α; Dose Concentration 0.10 μg/mL) | Interferon (α) Induction in Human Cells (interferon α; Dose Concentration 0.50 μg/mL) | Interferon (α) Induction in Human Cells (interferon α; Dose Concentration 1.0 μg/mL) | Interferon (α) Induction in Human Cells (interferon α; Dose Concentration 5.0 μg/mL) | Interferon (α) Induction in Human Cells (interferon α; Dose Concentration 10.0 μg/mL) | Interferon (α) Induction in Human Cells (interferon α; Dose Concentration 25.0 μg/mL) | Interferon (α) Induction in Human Cells (interferon α; Dose Concentration 50.0 μg/mL) | TNF induction (TNF; Dose Concentration 1.0 μM) | TNF induction (TNF; Dose Concentration 10.0 μM) | TNF induction (TNF; Dose Concentration 100.0 μM) | IFN induction (IFN; Dose Concentration 1.0 μM) | IFN induction (IFN; Dose Concentration 10.0 μM) | IFN induction (IFN; Dose Concentration 100.0 μM) | other results
1 | CCOCC(=O)Nc1cnc2cccnc2c1NCc1ccccc1.Cl | 205 to 212 °C |  |  |  |  |  |  |  |  |  |  |  |  |  |  |  | 
2 | CCCCc1nc2c(N)nc3cccnc3c2n1CCNC(=O)CCc1ccccc1 (as salt: hydrochloride) [Example 96, N^1-[2-(4-Amino-2-butyl-1H-imidazo[4,5-c][1,5]naphthyridin-1-yl)ethyl]-3-phenylpropanamide Hydrochloride] | 183 to 185 °C |  |  |  |  |  |  |  |  |  |  |  |  |  |  |  | 
3 | O.Oc1cc2nnnn2c2cnccc12 (hydrate or solvate) | 247 to 248 °C (dec.) |  |  |  |  |  |  |  |  |  |  |  |  |  |  |  | 
4 | CC(C)Cn1cnc2c(N)nc3ncccc3c21 (hydrate or solvate) [Example 9, 1-(2-Methylpropyl)-1H-imidazo[4,5-c][1,8]naphthyridin-4-amine hydrate] | 325 to 330 °C (dec.) |  |  |  |  |  |  |  |  |  |  |  |  |  |  |  | 
5 | CCCCc1nc2c(N)nc3c(c2n1CC(C)C)CCCN3 (hydrate or solvate) [Example 13, 2-Butyl-6,7,8,9-tetrahydro-1-(2-methylpropyl) 1H-imidazo[4,5-c][1,8]naphthyridin-4-amine] | 81 to 84 °C |  |  |  |  |  |  |  |  |  |  |  |  |  |  |  | 
6 | CCCCc1nc2c(N)nc3cccnc3c2n1CCCCNC(=O)c1ccc(N2CCOCC2)nc1 (hydrate or solvate) [Example 106, N^1-[4(4-Amino-2-butyl-1H-imidazo[4,5-c][1,5]naphthyridin-1-yl)butyl]-6-morpholinonicotinamide] | 95 to 100 °C |  |  |  |  |  |  |  |  |  |  |  |  |  |  |  | 
7 | Cc1nnnn1-c1ncccc1C(=O)O [Example 1, 2-(5-Methyl-1H-tetrazol-1-yl)nicotinic Acid] | 178 to 180 °C |  |  |  |  |  |  |  |  |  |  |  |  |  |  |  | 
8 | Oc1cc2nnnn2c2ncccc12 [Example 3, Tetrazolo[1,5-a][1,8]naphthyridin-5-ol] | 236 °C (dec.) |  |  |  |  |  |  |  |  |  |  |  |  |  |  |  | 
9 | Clc1cc2nnnn2c2ncccc12 [Example 4, 5-Chlorotetrazolo[1,5-a][1,8]naphthyridine] | 229 to 230 °C (dec.) |  |  |  |  |  |  |  |  |  |  |  |  |  |  |  | 
10 | CC(C)CNc1c([N+](=O)[O-])c2nnnn2c2ncccc12 [Example 6, N^5-(2-Methylpropyl)-4-nitrotetrazolo[1,5-a][1,8]naphthyridin-5-amine] | 171 °C (dec.) |  |  |  |  |  |  |  |  |  |  |  |  |  |  |  | 
11 | CC(C)Cn1cnc2c(N)nc3ncccc3c21 [Example 9, 1-(2-Methylpropyl)-1H-imidazo[4,5-c][1,8]naphthyridin-4-amine hydrate] |  | − | − | − | − | − | − | − | − | − | − | − | − | − | + | − | TNF induction (TNF; Dose Concentration 0.1 μM): −; IFN induction (IFN; Dose Concentration 0.1 μM): ±
12 | CCCCc1nc2c(N)nc3ncccc3c2n1CC(C)C [Example 12, 2-Butyl-1-(2-methylpropyl)-1H-imidazo[4,5-c][1,8]naphthyridin-4-amine] |  | − | − | + | + | + | + | + | + | + | + | + | + | + | + | + | 
13 | CCCCc1nc2c(N)nc3c(c2n1CC(C)C)CCCN3 [Example 13, 2-Butyl-6,7,8,9-tetrahydro-1-(2-methylpropyl) 1H-imidazo[4,5-c][1,8]naphthyridin-4-amine] |  | − | + | + | + | + | + | + | + | + | + | + | + | + | + | + | 
14 | CCCCc1nc2c(N)nc3cccnc3c2n1CC(C)C [Example 39, 2-Butyl-1-(2-methylpropyl)-1H-imidazo[4,5-c][1,5]naphthyridin-4-amine] |  | − | − | + | + | + | + | + | + | + | + | + | − | + | + | − | 
15 | CCCCc1nc2c(N)nc3c(c2n1CC(C)C)NCCC3 [Example 40, 6,7,8,9-Tetrahydro-2-butyl-1-(2-methylpropyl)-1H-imidazo[4,5-c][1,5]naphthyridin-4-amine] |  | − | + | + | + | + | + | + | + | + | + | + | + | + | + | ± | 
